Measured values taken from BindingDB's records for patent US20260055079 (Azkarra Therapeutics, 2026).
pIC50: −log10 of the molar value.

What was measured:
[1] = target: T1, Protein mono-ADP-ribosyltransferase TIPARP (Homo sapiens, UniProt Q7Z3E1); assay: PARP7 Biochemical Assay
T1 sequence (Q7Z3E1 whole entry): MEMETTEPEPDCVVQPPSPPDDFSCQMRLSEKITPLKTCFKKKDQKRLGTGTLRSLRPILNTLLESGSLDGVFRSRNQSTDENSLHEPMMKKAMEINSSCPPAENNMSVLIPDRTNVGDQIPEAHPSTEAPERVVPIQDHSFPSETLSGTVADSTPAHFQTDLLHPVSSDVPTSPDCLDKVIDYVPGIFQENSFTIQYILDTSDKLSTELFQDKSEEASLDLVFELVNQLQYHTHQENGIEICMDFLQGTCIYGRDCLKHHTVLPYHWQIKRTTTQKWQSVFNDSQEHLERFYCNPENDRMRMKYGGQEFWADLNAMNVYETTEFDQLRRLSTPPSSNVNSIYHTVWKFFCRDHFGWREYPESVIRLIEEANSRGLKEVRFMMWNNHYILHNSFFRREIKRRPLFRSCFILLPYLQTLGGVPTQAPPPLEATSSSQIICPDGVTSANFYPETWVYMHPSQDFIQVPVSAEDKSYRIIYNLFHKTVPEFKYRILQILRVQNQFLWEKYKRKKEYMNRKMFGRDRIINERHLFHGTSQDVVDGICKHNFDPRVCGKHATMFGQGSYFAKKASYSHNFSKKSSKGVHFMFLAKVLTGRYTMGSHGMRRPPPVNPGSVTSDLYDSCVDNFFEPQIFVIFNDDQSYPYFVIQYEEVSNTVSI
Description: 23 μL of 100 nM His-GST-PARP7 in PARP buffer for reaction (PBR) (50 mM HEPES pH 7.5, 100 mM NaCl, 4 mM MgCl2, 0.2 mM TCEP) was added to each well of XpressBio GSH-coated 384 well plates and incubated for 1 h at RT. The plate was then washed for 3 times in 50 μL PBST (1×PBS, 0.02% Tween-20), followed by one wash in 1×PBS and one wash PBR. Each wash was incubated for 3 min. After washing, varying concentrations of each inhibitor was pre-incubated with 20 μM (2×) 6-a-NAD+. The solution was added to the plate, diluted to 1× in PBR, and incubated at 30° C. for 90 min. Following the enzymatic reaction, the plate was washed 3 times in PBST, once in PBS for 3 min each wash. The wells were then subjected to 25 μL of click reaction buffer consisting of 100 μM TBTA, 1 mM CuSO4, 100 μM Biotin-N3, 2 mM TCEP made up in 1×PBS. The wells were incubated in click reaction buffer for 30 min at 30° C. The click buffer was removed, and the plate was washed 3 times with PBST and once with PBS as before. The plate was then blocked with 5% BSA in PBST. The plate was then washed 3 times with PBST and once with PBS. To develop, the plate was incubated with 25 μL of 0.05 ng/μL Step-HRP with 0.02% BSA in PBS. The plate was washed 3 times with PBS before developing with QuantaRed per manufacturer directions. Fluorescence (Excitation 550 nm. Emission 620 nm) was immediately read using a Paradigm Plate Reader.

[2] = target: Poly [ADP-ribose] polymerase 2 (Homo sapiens, UniProt Q9UGN5); assay: Protocol for the PARP1 and PARP2 Biochemical Assays
Poly [ADP-ribose] polymerase 2, sequence (Q9UGN5 whole entry): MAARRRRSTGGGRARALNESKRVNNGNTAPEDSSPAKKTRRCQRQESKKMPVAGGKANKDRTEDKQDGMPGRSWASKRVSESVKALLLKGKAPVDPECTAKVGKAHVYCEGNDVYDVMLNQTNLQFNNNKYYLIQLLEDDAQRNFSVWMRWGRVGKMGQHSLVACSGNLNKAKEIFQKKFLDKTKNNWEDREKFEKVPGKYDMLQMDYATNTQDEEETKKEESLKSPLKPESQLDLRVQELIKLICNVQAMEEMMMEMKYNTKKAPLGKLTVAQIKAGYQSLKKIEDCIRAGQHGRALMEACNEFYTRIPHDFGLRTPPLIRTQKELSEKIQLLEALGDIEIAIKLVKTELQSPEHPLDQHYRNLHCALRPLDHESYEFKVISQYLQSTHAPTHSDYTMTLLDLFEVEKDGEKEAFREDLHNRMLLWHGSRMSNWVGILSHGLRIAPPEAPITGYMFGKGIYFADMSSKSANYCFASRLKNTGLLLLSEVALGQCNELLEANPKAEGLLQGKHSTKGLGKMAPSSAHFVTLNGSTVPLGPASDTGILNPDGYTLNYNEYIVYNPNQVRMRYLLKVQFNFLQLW
Description: (§1) Each wash was incubated for 3 min. After washing, varying concentrations of each inhibitor was pre-incubated with 20 μM (2×) 6-a-NAD+. 25 μL of the 2×6-a-NAD+/inhibitor mixture was added to the plate with 25 μL of 20 nM of PARP1 or PARP2 in PBR with 0.1 mg/mL Activated DNA (Sigma). PARP final concentration 10 nM. The reaction mixture was incubated at 30° C. for 1 h. The plate was then washed 3 time with PBST and once with PBS. The wells were subjected to a 50 μL click reaction consisting of 100 μM TBTA, 1 mM CuSO4. 100 μM Biotin-N3, 2 mM TCEP made up in 1×PBS at RT for 30 min. The plate was then washed 3 times with PBST before blocking in 100 μL of 1% Milk (Carnation) in PBST at RT for 30 min. The plate was again washed 3 times with PBST and once with PBS before incubation with Strep-HRP (0.05 ng/μL Strep-HRP (Fisher Scientific), 300 ng/μL BSA, 1×PBS) for 30 min at RT. The plate was washed 3 time in PBST and once with PBS before development with QuantaRed (Pierce) per manufacturer directions.

[3] = target: Poly [ADP-ribose] polymerase 1 (Homo sapiens, UniProt P09874); assay: as above
Poly [ADP-ribose] polymerase 1, sequence (P09874 whole entry): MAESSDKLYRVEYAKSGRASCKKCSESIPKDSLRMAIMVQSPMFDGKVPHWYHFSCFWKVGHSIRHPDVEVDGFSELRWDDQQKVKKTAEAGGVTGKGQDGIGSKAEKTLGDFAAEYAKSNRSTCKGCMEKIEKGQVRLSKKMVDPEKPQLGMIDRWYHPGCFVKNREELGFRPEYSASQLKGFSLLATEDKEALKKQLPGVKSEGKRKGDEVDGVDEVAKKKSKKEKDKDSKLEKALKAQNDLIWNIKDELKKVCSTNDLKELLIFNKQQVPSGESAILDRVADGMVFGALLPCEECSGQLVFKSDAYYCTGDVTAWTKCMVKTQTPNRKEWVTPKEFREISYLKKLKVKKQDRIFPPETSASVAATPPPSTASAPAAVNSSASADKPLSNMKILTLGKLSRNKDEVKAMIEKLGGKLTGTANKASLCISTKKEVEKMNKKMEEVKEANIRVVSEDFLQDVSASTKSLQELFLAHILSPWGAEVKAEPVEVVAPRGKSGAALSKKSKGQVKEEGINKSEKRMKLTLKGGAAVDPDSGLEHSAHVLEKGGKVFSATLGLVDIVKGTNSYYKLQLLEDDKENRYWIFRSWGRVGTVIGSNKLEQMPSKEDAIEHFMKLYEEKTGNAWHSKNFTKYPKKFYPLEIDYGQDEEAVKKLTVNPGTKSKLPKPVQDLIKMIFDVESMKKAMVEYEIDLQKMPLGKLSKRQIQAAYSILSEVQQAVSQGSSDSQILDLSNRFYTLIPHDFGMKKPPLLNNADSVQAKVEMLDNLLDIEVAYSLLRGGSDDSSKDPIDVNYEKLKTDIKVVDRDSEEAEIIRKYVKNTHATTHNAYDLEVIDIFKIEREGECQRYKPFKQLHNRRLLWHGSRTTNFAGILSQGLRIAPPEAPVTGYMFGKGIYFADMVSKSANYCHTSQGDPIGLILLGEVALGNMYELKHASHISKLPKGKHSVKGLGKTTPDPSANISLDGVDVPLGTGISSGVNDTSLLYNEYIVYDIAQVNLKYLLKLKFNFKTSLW
Description: as §1

N#Cc1ccc(N2CCN(C(=O)c3cc(Cc4n[nH]c(=O)c5ccc(/C=C/C(F)(F)F)cc45)ccc3F)CC2)nc1 [US20260055079, Example 27]
pIC50 [1]: > 7.30

CCc1ccc2c(=O)[nH]nc(Cc3ccc(F)c(C(=O)N4CCN(c5ncc(C(F)(F)F)cn5)CC4)c3)c2c1 [US20260055079, Example 43]
pIC50 [1]: > 7.30

CC#Cc1ccc2c(=O)[nH]nc(Cc3ccc(F)c(C(=O)N4CCN(c5ncc(C(F)(F)F)cn5)CC4)c3)c2c1 [US20260055079, Example 48]
pIC50 [2]: < 5.70

N#Cc1cnc(N2CCN(C(=O)c3cc(Cc4n[nH]c(=O)c5ccc(OC6CCC6)cc45)ccc3F)CC2)cc1C(F)(F)F [US20260055079, Example 132]
pIC50 [2]: < 5.70
pIC50 [3]: < 5.70
pIC50 [1]: > 7.30

N#Cc1ccc(N2CCN(C(=O)c3cc(Cc4n[nH]c(=O)c5ccc(CCC(F)(F)F)cc45)ccc3F)CC2)nc1 [US20260055079, Example 25]
pIC50 [1]: > 7.30
